In data set [1] the test system is Peritoneal exudate cells (PEC) from guinea pig. The experiment in a line: Macrophage Migration Inhibitory Factor (MIF) assay, nonspecific inhibition of macrophage migration. Format: cell-based, Hartley strain guinea pigs. As to conditions: less than 20% considered insignificant. On the procedure: The standardized Macrophage Migration Inhibitory Factor (MIF) assay for natural thymosin β4, synthetic thymosin β4, compounds of formula XVI, (designated C12 β3), formula VI (designated C8 β4), formula IV (designated C10 β4), and formula VIII (designated C6 β4) was performed following the method of Thurman, et al., Lymphokines and Thymic Hormones: Their Potential Utilization in Cancer Therapeutics, ed. by Goldstein and Chirigos, Raven Press, New York, pp 145-157 (1981). Peritoneal exudate cells (PEC) from guinea pig were prepared in Hartley strain guinea pigs by injecting 20-30 ml of sterile mineral oil 3-5 days prior to the assay. On the day of the assay, the guinea pigs were anesthetized and injected i.p. with 50 ml of RPMI-1640. Following abdominal massage, the peritoneum was opened with a one inch incision in the umbilical region and the peritoneal fluids withdrawn. The peritoneal fluids were centrifuged at 200×g for 10 min and the pelleted cells resuspended in a small volume of RPMI for transfer to clean tubes. Following three more washes, the cells were resuspended, counted and adjusted to 45×10^6/ml for use. In some experiments mouse PEC were used in place of guinea pig PEC. The mouse PEC were induced in BALB/c normal or nude mice by injecting 1 ml of mineral oil i.p. 3 days prior obtaining the cells by washing the peritoneum with 5 ml of RPMI 1640. In some experiments macrophage-like cell lines, WEHI-3 and FC-1, were used in place of PEC. The WEHI-3 cells migrate and have been reported to respond to migration inhibitory factor (MIF). Likewise, the FC-1 cells are also migratory and respond to MIF. […] The percent nonspecific inhibition (PNSI) was calculated as: [formula] […] Percent nonspecific inhibition of migration of less than 20% was also considered insignificant. The date from these experiments are compiled in Table 3.

Data set [2] deals with Splenic lymphocytes. The experiment in a line: In vivo restoration of splenic mitogenic responses in HCA suppressed mice (tritiated thymidine incorporation). The arrangement: species or system C57B1/6J mice. As to conditions: for Mitogens PHA-P (cpm): HCA-saline 12,000, normal 30,000; for Mitogens Con A (cpm): HCA-saline 86,000, normal 210,000. How it is done:
The in vivo effect of thymosin fractions (supra) on restoration of splenic mitogenic responses in HCA suppressed C57B1/6J mice was assayed and determined by the following method.
Splenic lymphocytes were removed sterilly, placed in plastic petri dishes containing RPMI 1640 (with 25 mM HEPES buffer, 100 μ/ml penicillin, 100 μg/ml streptomycin and 2mM L-glutamine) and a 64-mesh stainless steel wire screen. Single cell suspensions were obtained by further passage through a 25 GA needle. The cells were washed twice, counted using a Coulter Counter Model A and suspended to give a concentration of 6×10^6 leukocytes/ml. Cultures were prepared in flat bottom 96 well microtiter plates by placing 0.10 ml of the cell suspension into each well plus 0.05 ml 20% heat inactivated fetal calf serum (FCS) (resulting in 6×10^5 cells/well in 5% FCS final). Control cultures received 0.05 ml of RPMI 1640, and the stimulated cultures received 0.025 ml of RPMI 1640 containing various concentrations of thymosin and 0.025 ml of various concentrations of PHA-P (Difco, Detroit, Michigan), Con-A (Calbiochem, Oxnard, California), PWM (GIBCO, Grand Island, New York) or E. coli LPS (Difco, Detroit, Michigan) all made up in RPMI 1640. Cultures were pulsed by adding 1 uCi tritiated thymidine, 1.9 Ci/mM (Schwartz/Mann,Orangeburg, New Jersey), in 0.02 ml of RPMI 1640 8 hours before culture termination. Cultures were harvested utilizing a Multiple-Automated Sample Harvester (Microbiological Associates, Bethesda, Maryland). The resulting filter spots were dried and placed in glass liquid scintillation mini-vials to which was added 1 ml of scintillation cocktail. The vials were stoppered and the tritiated thymidine incorporation analyzed by scintillation spectrophotometry on an LKB liquid scintillation counter to provide Con A (cpm) and PHA-P (cpm). Processing of the data and necessary statistical tests were performed on a Wang 700 C Advanced Programming Calculator (Wang Labs, Tewksbury, Massachusetts) and are compiled in columns 1-2 and 5-6 of Table 2.

Data set [3] relates to TdT activity in thymocytes. The experiment in a line: In vivo effect on TdT activity in thymocytes of hydrocortisone acetate (HCA) treated mice. As to conditions: for TdT Specific Activity: daily for 11 days after 1.25 mg HCA at day 0, HCA-saline 6.4, normal 8.9; for TdT % Increase over HCA-saline: daily for 11 days after HCA. Further details: species or system C57B1/6J mice. How it is done: The in vivo effect of thymosin fractions, i.e. thymosin β3 (designated HCA-thymosin β3), thymosin β4 (designated HCA-thymosin β4), thymosin fraction 5 (designated HCA-thymosin fr 5), compound of formula VI (designated HCA-synthetic C8 β4) and compound of formula XVI (designated HCA-synthetic C12 β3, on TdT activity in thymocytes of hydrocortisone acetate (HCA) treated C57B1/6J mice was assayed and determined according to the method of Hu, et al., 38, 1079 (1979).
For TdT activity determination [(following the Hu et al method (supra)], a 1.25 mg HCA injection per animal was carried out at day zero (0). Each injection was followed by daily treatment of the animal with the thymosin fractions (supra) or controls, i.e. no HCA and HCA-saline, for eleven (11) consecutive days. The increase in TdT specific activity (nmoles of dGTP incorporated per 10^8 thymocytes per hour) over that of HCA-saline treated animals was determined, the data compiled in columns 1-4 of Table 2.

Data set [4] deals with TdT positive cells in the thymus. Particulars: following steroid induced immunosuppression; Low et al. 1981; cited from earlier work.
In data set [5] the test system is T-cell populations. As to conditions: partially purified; Low and Goldstein 1978; cited from earlier work.
The test system of data set [6] is macrophages. As to conditions: Thurman et al. 1981; cited from earlier work.

Where no end group is shown, it is not given here.

Turning to “IEQEKQQAGES [C10 β4, L-Isoleucyl-L-glutamyl-L-glutaminyl-L-glutamyl-L-lysyl-L-glutaminyl-L-glutaminyl-L-alanyl-glycyl-L-glutamyl-L-serine]”, the “PNSI (percent nonspecific inhibition of macrophage migration)” value in data set [1] (0.0005 nmoles/ml) was -5.3%; in data set [1] (0.005 nmoles/ml) it was 10.7%; in data set [1] (0.05 nmoles/ml), 18.8%; in data set [1] (0.5 nmoles/ml) it was 21.6%.

Turning to “KQAGES [C6 β4, L-Lysyl-L-glutaminyl-L-alanyl-glycyl-L-glutamyl-L-serine]”, the “PNSI (percent nonspecific inhibition of macrophage migration)” value is 3.1% in data set [1] (0.0005 nmoles/ml), -5.1% in data set [1] (0.005 nmoles/ml), 15.2% in data set [1] (0.05 nmoles/ml) and 18.3% in data set [1] (0.5 nmoles/ml).

On to “QAGESDEITAKT [C12 β3, L-Glutaminyl-L-alanyl-glycyl-L-glutamyl-L-seryl-L-aspartyl-L-glutamyl-L-isoleucyl-L-threonyl-L-alanyl-L-lysyl-L-threonine]”, for which the “Mitogens PHA-P (cpm)” value in data set [2] (10 μg/injection) is on record as 65,000 cpm. Moreover, in data set [2] (10 μg/injection), the “Mitogens Con A (cpm)” value is 110,000 cpm. Moreover, the “PNSI (percent nonspecific inhibition of macrophage migration)” value was 23.5% in data set [1] (0.0005 nmoles/ml), 24.7% in data set [1] (0.005 nmoles/ml), 29.7% in data set [1] (0.05 nmoles/ml) and 30.2% in data set [1] (0.5 nmoles/ml). The “TdT Specific Activity” value in data set [3] (10 μg/injection) was 8.2 nmoles of dGTP incorporated pe. Also, the “TdT % Increase over HCA-saline” value in data set [3] (10 μg/injection) is on record as 28%.

With “QEKQAGES [C8 β4, L-glutaminyl-L-glutamyl-L-lysyl-L-glutaminyl-L-alanyl-glycyl-L-glutamyl-L-serine]”, in data set [2] (10 μg/injection), the “Mitogens PHA-P (cpm)” value was 11,000 cpm. Moreover, the “Mitogens Con A (cpm)” value in data set [2] (10 μg/injection) is on record as 140,000 cpm. The “PNSI (percent nonspecific inhibition of macrophage migration)” value in data set [1] (0.0005 nmoles/ml) is 5.5%; in data set [1] (0.005 nmoles/ml), 27.0%; in data set [1] (0.05 nmoles/ml), 25.4%; in data set [1] (0.5 nmoles/ml) it was 24.1%. Moreover, the “TdT Specific Activity” value in data set [3] (10 μg/injection) was 7.6 nmoles of dGTP incorporated pe. Moreover, in data set [3] (10 μg/injection), the “TdT % Increase over HCA-saline” value was found to be 19%.

In the case of “Synthetic thymosin β4: synthetic thymosin β4, tested beside natural thymosin β4 in the MIF assay (SDKPDMAEIEKFDKSKLKKTETQEKNPLPSKETIEQEKQAGES; Thymosin beta-4 synthetic; UniProt P62328 2-44, looked up) [reference compound]”, the “PNSI (percent nonspecific inhibition of macrophage migration)” value in data set [1] (0.005 nmoles/ml) was determined as 25.0%; in data set [1] (0.05 nmoles/ml), 25.9%; in data set [1] (0.5 nmoles/ml), 30.3%.

In the case of “thymosin β3 [HCA--Thymosin β3, reference compound]”, the “Reappearance of TdT positive cells in the thymus” value in data set [4] is reported as “accelerate the reappearance of TdT positive cells in the thymus”. Further, in data set [5], the “Induction of TdT positive cells in T-cell populations” value is listed as “induce TdT positive cells”. Further, in data set [2] (1 μg/injection), the “Mitogens PHA-P (cpm)” value is given as 27,000 cpm and the “Mitogens Con A (cpm)” value is recorded as 120,000 cpm. Further, in data set [6], the Migration of macrophages result is recorded as “inhibit the migration of macrophages”. In data set [3] (1 μg/injection), the “TdT Specific Activity” value is recorded as 9.7 nmoles of dGTP incorporated pe and the “TdT % Increase over HCA-saline” value was found to be 52%.

Turning to “thymosin β4 [Natural thymosin β4, reference compound]”, in data set [4], the “Reappearance of TdT positive cells in the thymus” value is on record as “accelerate the reappearance of TdT positive cells in the thymus”. Besides, the “Induction of TdT positive cells in T-cell populations” value in data set [5] is recorded as “induce TdT positive cells”. Further, the “Mitogens PHA-P (cpm)” value in data set [2] (1 μg/injection) is 10,000 cpm. In addition, the “Mitogens Con A (cpm)” value in data set [2] (1 μg/injection) is 125,000 cpm. Also, the Migration of macrophages result in data set [6] is reported as “inhibit the migration of macrophages”. Also, the figures for the “PNSI (percent nonspecific inhibition of macrophage migration)” value in data set [1] (0.005 nmoles/ml), in data set [1] (0.05 nmoles/ml) and in data set [1] (0.5 nmoles/ml) were 23.1%, 29.2% and 37.6%, respectively. In addition, the “TdT Specific Activity” value in data set [3] (1 μg/injection) is listed as 8.8 nmoles of dGTP incorporated pe. Further, the “TdT % Increase over HCA-saline” value in data set [3] (1 μg/injection) is 38%.

These data come from patent US4395404A, “Synthetic thymosin β3 and β4 analogues” (George Washington University, priority 1982, dated 1983).
